We go through 24 molecules from patent US20080287430A1, “Furan Compounds Useful As Ep1 Receptor Antagonists” (priority 2005, published 2008).

Assay [1] deals with T1, human EP1 receptor (Homo sapiens, UniProt P34995).
T1 construct: expressed in transfected cells; host or cells: CHO-K1
T1 sequence (P34995 1-402): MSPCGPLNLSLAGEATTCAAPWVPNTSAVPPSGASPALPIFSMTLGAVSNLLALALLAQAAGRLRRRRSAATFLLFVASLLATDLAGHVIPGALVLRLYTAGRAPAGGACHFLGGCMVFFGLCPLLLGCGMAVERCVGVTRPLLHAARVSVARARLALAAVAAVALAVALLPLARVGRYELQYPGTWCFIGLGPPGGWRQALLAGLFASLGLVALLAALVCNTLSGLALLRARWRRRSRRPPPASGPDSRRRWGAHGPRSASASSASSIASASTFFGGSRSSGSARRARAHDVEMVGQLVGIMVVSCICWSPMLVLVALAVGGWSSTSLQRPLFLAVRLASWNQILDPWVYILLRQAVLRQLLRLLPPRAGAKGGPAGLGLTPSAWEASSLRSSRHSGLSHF
The experiment in a line: Binding assay for the human prostanoid EP1 receptor (competition with [3H]-PGE2). Conditions: binding to human EP1 receptor, [3H]-PGE2 competition, CHO-K1 cell membranes; averages of a number of experiments; read-out: pIC50 value (converted). The protocol:
Competition assay using [^3H]-PGE2.
Compound potencies are determined using a radioligand binding assay. In this assay compound potencies are determined from their ability to compete with tritiated prostaglandin E2 ([^3H]-PGE2) for binding to the human EP1 receptor.
This assay utilises Chinese hamster ovary-K1 (CHO-K1) cells into which a stable vector containing the EP1 cDNA has previously been transfected. Cells are cultured in suitable flasks containing culture medium such as DMEM:F-12 supplemented with 10% v/v foetal calf serum, 2 mM L-glutamine, 0.25 mg/ml geneticin, 10 μg/ml puromycin and 10 μM indomethacin.
Cells are detached from the culture flasks by incubation in calcium and magnesium free phosphate buffered saline containing 1 mM disodium ethylenediaminetetraacetic acid (Na2EDTA) and 10 μM indomethacin for 5 min. The cells are isolated by centrifugation at 250×g for 5 mins and suspended in an ice cold buffer such as 50 mM Tris, 1 mM Na2EDTA, 140 mM NaCl, 10 μM indomethacin (pH 7.4). The cells are homogenised using a Polytron tissue disrupter (2×10 s burst at full setting), centrifuged at 48,000×g for 20 mins and the pellet containing the membrane fraction is washed (optional) three times by suspension and centrifugation at 48,000×g for 20 mins. The final membrane pellet is suspended in an assay buffer such as 10 mM 2-[N-morpholino]ethanesulphonic acid, 1 mM Na2EDTA, 10 mM MgCl2 (pH 6). Aliquots are frozen at −80° C. until required.
For the binding assay the cell membranes, competing compounds and [^3H]-PGE2 (3 nM final assay concentration) are incubated in a final volume of 100 μl for 30 min at 30° C. All reagents are prepared in assay buffer. Reactions are terminated by rapid vacuum filtration over GF/B filters using a Brandell cell harvester. The filters are washed with ice cold assay buffer, dried and the radioactivity retained on the filters is measured by liquid scintillation counting in Packard TopCount scintillation counter.
The data are analysed using non linear curve fitting techniques to determine the concentration of compound producing 50% inhibition of specific binding (IC50).

In assay [2] the target is T1, human EP1 receptor. The experiment in a line: human EP1 calcium mobilisation assay. It counts as cell-based. Conditions: human EP1, PGE2-induced calcium mobilisation in CHO-K1 cells; free bases or sodium salts; averages of a number of experiments; read-out: functional pKi value (converted). In outline: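 CHO-K1 cells stably expressing human EP1, loaded with Fluo-4 after 24 h at 37° C; compounds added before PGE2 challenge. Inhibition of PGE2-induced [Ca2+]i rise read by FLIPR fluorescence; pIC50 from curve fitting of half-maximal inhibition.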
Background: Calcium assays in cells follow changes in intracellular calcium, usually with a dye or a luminescent sensor.

Each structure is given as a SMILES string. Where a name gives a salt, the structure may show the parent alone. Some results are limits rather than exact numbers.

For the molecule `Clc1ccc(OCc2ccccc2)c(Cc2ccc(-c3nc4ccccc4[nH]3)o2)c1` [Example 99, 2-[5-({5-Chloro-2-[(phenylmethyl)oxy]phenyl}methyl)-2-furanyl]-1H-benzimidazole], the IC50 in assay [1] was no more than 0.01 µM. Moreover, the Ki in assay [2] is less than 1 µM.

As to `O=C(O)c1ccc(Cc2cc(Cl)ccc2OCc2ccc(F)cc2)o1` [Example 21, Sodium 5-[(5-chloro-2-{[(4-fluorophenyl)methyl]oxy}phenyl)methyl]-2-furancarboxylate], the IC50 in assay [1] is no more than 0.01 µM. Moreover, the Ki in assay [2] was no more than 0.01 µM.

Take `O=C(Nc1c(F)cccc1F)c1ccc(Cc2cc(Cl)ccc2OCc2ccc(F)cc2F)o1` [Example 36, 5-[(5-Chloro-2-{[(2,4-difluorophenyl)methyl]oxy}phenyl)methyl]-N-(2,6-difluorophenyl)-2-furancarboxamide]: the IC50 in assay [1] was no more than 0.01 µM. Moreover, in assay [2], the Ki was no more than 0.01 µM.

In the case of `Cc1cc(C(=O)O)oc1Cc1cc(Cl)ccc1OCc1ccccc1` [Example 15, Sodium 5-({5-chloro-2-[(phenylmethyl)oxy]phenyl}methyl)-4-methyl-2-furancarboxylate], the IC50 in assay [1] was no more than 0.01 µM. Also, in assay [2], the Ki was no more than 0.01 µM.

As for `O=C(O)c1ccc(Cc2cc(Cl)ccc2OCc2ccccc2)o1` [Example 18, Sodium 5-({5-chloro-2-[(phenylmethyl)oxy]phenyl}methyl)-2-furancarboxylate], the IC50 in assay [1] was no more than 0.01 µM. The Ki in assay [2] was no more than 0.01 µM.

Take `CC(C)COc1ccc(Cl)cc1Cc1ccc(-c2nc3ccc(N4CCOCC4)cc3[nH]2)o1` [Example 112, 2-[5-({5-Chloro-2-[(2-methylpropyl)oxy]-phenyl}methyl)-2-furanyl]-5-(4-morpholinyl)-1H-benzimidazoledihydrochloride]: in assay [1], the IC50 is no more than 0.01 µM. Moreover, in assay [2], the Ki is less than 1 µM.

On to `O=C(O)c1ccc(Cc2cc(Cl)ccc2OCc2ccc(Cl)cc2F)o1` [Example 23, Sodium 5-[(5-chloro-2-{[(4-chloro-2-fluorophenyl)methyl]oxy}phenyl)methyl]-2-furancarboxylate], for which the IC50 in assay [1] is no more than 0.01 µM. Moreover, in assay [2], the Ki is no more than 0.01 µM.

With `CC(C)COc1ccc(Cl)cc1Cc1ccc(-c2nc3ccc(CN(C)C(C)C)cc3[nH]2)o1` [Example 151, N-({2-[5-({5-Chloro-2-[(2-methylpropyl)oxy]-phenyl}methyl)-2-furanyl]-1H-benzimidazol-5-yl}methyl)-N-methyl-2-propanaminedihydrochloride], the IC50 in assay [1] was no more than 0.01 µM. For the same molecule, the Ki in assay [2] is less than 1 µM.

`CC(C)COc1ccc(Cl)cc1Cc1ccc(-c2nc3ccc(CNCCO)cc3[nH]2)o1` [Example 156, 2-[({2-[5-({5-Chloro-2-[(2-methylpropyl)oxy]-phenyl}methyl)-2-furanyl]-1H-benzimidazol-5-yl}methyl)amino]-ethanol]: in assay [1], the IC50 is no more than 0.01 µM. Besides, the Ki in assay [2] was less than 1 µM.

On to `COc1nccc2[nH]c(-c3ccc(Cc4cc(Cl)ccc4OCC(C)C)o3)nc12` [Example 104, 2-[5-({5-Chloro-2-[(2-methylpropyl)oxy]-phenyl}methyl)-2-furanyl]-4-(methyloxy)-1H-imidazo[4,5-c]pyridine], for which, in assay [1], the IC50 is no more than 0.01 µM. For the same molecule, the Ki in assay [2] is no more than 0.01 µM.

`CC(C)COc1ccc(Cl)cc1Cc1ccc(-c2nc3ccc(CCN4CCN(C)CC4)cc3[nH]2)o1` [Example 162, 2-[5-({5-Chloro-2-[(2-methylpropyl)oxy]-phenyl}methyl)-2-furanyl]-5-[2-(4-methyl-1-piperazinyl)ethyl]-1H-benzimidazoletrihydrochloride]: the IC50 in assay [1] was no more than 0.01 µM. For the same molecule, the Ki in assay [2] is less than 1 µM.

With `CC(C)COc1ccc(Cl)cc1Cc1ccc(-c2nc3ccc(CN(C)C)cc3[nH]2)o1` [Example 142, ({2-[5-({5-Chloro-2-[(2-methylpropyl)oxy]-phenyl}methyl)-2-furanyl]-1H-benzimidazol-5-yl}methyl)dimethyl-amine dihydrochloride], the IC50 in assay [1] is no more than 0.01 µM. In assay [2], the Ki is less than 1 µM.

`CC(C)COc1ccc(Cl)cc1Cc1ccc(-c2nc3nccnc3[nH]2)o1` [Example 106, 2-[5-({5-Chloro-2-[(2-methylpropyl)oxy]-phenyl}methyl)-2-furanyl]-1H-imidazo[4,5-b]pyrazine]: the IC50 in assay [1] is no more than 0.01 µM. In addition, the Ki in assay [2] is no more than 0.01 µM.

Take `CC(C)COc1ccc(Cl)cc1Cc1ccc(-c2nc3ccccc3[nH]2)o1` [Example 98, 2-[5-({5-Chloro-2-[(2-methylpropyl)oxy]phenyl}methyl)-2-furanyl]-1H-benzimidazole]: the IC50 in assay [1] was no more than 0.01 µM. Further, in assay [2], the Ki is no more than 0.01 µM.

`CC(C)COc1ccc(Cl)cc1Cc1ccc(-c2nc3ccc(CO)cc3[nH]2)o1` [Example 132]: the IC50 in assay [1] was no more than 0.01 µM. In assay [2], the Ki was less than 1 µM.

On to `OCc1ccc2nc(-c3ccc(Cc4cc(Cl)ccc4OCc4ccccc4)o3)[nH]c2c1` [Example 133, {2-[5-({5-Chloro-2-[(phenylmethyl)oxy]phenyl}methyl)-2-furanyl]-1H-benzimidazol-5-yl}methanol], for which, in assay [1], the IC50 is no more than 0.01 µM. For the same molecule, in assay [2], the Ki is less than 1 µM.

With `O=C(NS(=O)(=O)c1ccccc1)c1ccc(Cc2cc(Cl)ccc2OCc2ccc(F)cc2F)o1` [Example 35, 5-[(5-Chloro-2-{[(2,4-difluorophenyl)methyl]oxy}phenyl)methyl]-N-(phenylsulfonyl)-2-furancarboxamide], the IC50 in assay [1] is no more than 0.01 µM. The Ki in assay [2] was no more than 0.01 µM.

Consider `CC(C)COc1ccc(Cl)cc1Cc1ccc(-c2nc3ccc(CN4CCN(C)CC4)cc3[nH]2)o1` [Example 145, 2-[5-({5-Chloro-2-[(2-methylpropyl)oxy]-phenyl}methyl)-2-furanyl]-5-[(4-methyl-1-piperazinyl)methyl]-1H-benzimidazoletrihydrochloride], for which the IC50 in assay [1] is no more than 0.01 µM. Moreover, in assay [2], the Ki is less than 1 µM.

On to `CC(C)COc1ccc(Cl)cc1Cc1ccc(-c2nc3cc4cnn(C)c4cc3[nH]2)o1` [Example 107, 6-[5-({5-Chloro-2-[(2-methylpropyl)oxy]-phenyl}methyl)-2-furanyl]-1-methyl-1,5-dihydroimidazo[4,5-f]indazole], for which the IC50 in assay [1] is no more than 0.01 µM. For the same molecule, in assay [2], the Ki is less than 1 µM.

Turning to `CC(C)COc1ccc(Cl)cc1Cc1ccc(-c2nc3cnccc3[nH]2)o1` [Example 117, 2-[5-({5-Chloro-2-[(2-methylpropyl)oxy]phenyl}-methyl)-2-furanyl]-1H-imidazo[4,5-c]pyridine], the IC50 in assay [1] is no more than 0.01 µM. In assay [2], the Ki is less than 1 µM.

On to `O=C(O)c1ccc(Cc2cc(Cl)ccc2OC2CCCC2)o1` [Example 5, Sodium 5-{[5-chloro-2-(cyclopentyloxy)phenyl]methyl}-2-furancarboxylate], for which the IC50 in assay [1] is no more than 0.01 µM. In assay [2], the Ki was no more than 0.01 µM.

`COCCN(C)Cc1ccc2nc(-c3ccc(Cc4cc(Cl)ccc4OCC(C)C)o3)[nH]c2c1` [Example 148, N-({2-[5-({5-Chloro-2-[(2-methylpropyl)oxy]-phenyl}methyl)-2-furanyl]-1H-benzimidazol-5-yl}methyl)-N-methyl-2-(methyloxy)ethanaminedihydrochloride]: the IC50 in assay [1] is no more than 0.01 µM. The Ki in assay [2] was less than 1 µM.

Take `O=C(O)c1ccc(Cc2cc(Cl)ccc2OCC2CCCCC2)o1` [Example 6, Sodium 5-({5-chloro-2-[(cyclohexylmethyl)oxy]phenyl}methyl)-2-furancarboxylate]: in assay [1], the IC50 is no more than 0.01 µM. Moreover, in assay [2], the Ki was less than 1 µM.

On to `O=C(O)c1ccc(Cc2cc(Cl)ccc2OCc2ccc(F)cc2Cl)o1` [Example 22, Sodium 5-[(5-chloro-2-{[(2-chloro-4-fluorophenyl)methyl]oxy}phenyl)methyl]-2-furancarboxylate], for which the IC50 in assay [1] is no more than 0.01 µM. The Ki in assay [2] is no more than 0.01 µM.
